From patent US20250101028A1, “HETEROCYCLIC COMPOUNDS, COMPOSITIONS THEREOF, AND METHODS OF TREATMENT THEREWITH” (BeiGene, Ltd., priority 2022, published 2025)

Target: T1, GST-tagged GDP-loaded KRAS G12V (amino acids 1-169) (Homo sapiens, UniProt P01116, G12V)
T1 construct: GST-tagged GDP-loaded KRAS G12V (amino acids 1-169); made in house; host or cells: E. coli
Test: KRAS G12V probe displacement assay (TR-FRET)
Type: binding
Details: displacement of biotinylated probe 2 from GDP-loaded KRAS G12V
Procedure: KRAS WT and KRAS G12V Probe Displacement Assay
This assay was used to identify compounds which bind to GDP-loaded KRAS protein and are able to displace a biotinylated probe occupying the KRAS binding site. GST-tagged GDP-loaded WT KRAS (amino acids 1-169) and GST-tagged GDP-loaded KRAS G12V (amino acids 1-169) were expressed in E. coli and purified in house. All protein and reaction solutions were prepared in assay buffer containing 50 mM HEPES pH7.5, 50 mM NaCl, 1 mM MgCl2, 1 mM TCEP, 0.01% BSA, and 0.008% Brij-35. Purified WT KRAS (3 nM final concentration) or KRAS G12V protein (2 nM final concentration) was incubated with a 3-fold serially diluted compound in the assay plate (384 well microplate, black, Corning). Plates are incubated at 24° C. for 1 hr. Following the incubation, biotinylated probe 1 (60 nM final assay concentration) for WT KRAS and biotinylated probe 2 (2.5 nM final assay concentration) for KRAS G12V was added to the assay plate, respectively. After 1 hr incubation at 24° C., Mab Anti-GST-Tb cryptate (Cisbio) and Streptavidin-XL665 (Cisbio) were added and further incubated at 24° C. for another 1 hr. The TR-FRET signals (ex337 nm, em665 nm/620 nm) were read on BMG PHERAstar FSX instrument. The inhibition percentage of KRAS protein binding with biotinylated probe in presence of increasing concentrations of compounds was calculated based on the ratio of fluorescence at 665 nm to that at 620 nm. The IC50 value of each compound was calculated from fitting the data to the four-parameter logistic model by Dotmatics.

T1 sequence (P01116 1-169 isoform P01116-2 G12V): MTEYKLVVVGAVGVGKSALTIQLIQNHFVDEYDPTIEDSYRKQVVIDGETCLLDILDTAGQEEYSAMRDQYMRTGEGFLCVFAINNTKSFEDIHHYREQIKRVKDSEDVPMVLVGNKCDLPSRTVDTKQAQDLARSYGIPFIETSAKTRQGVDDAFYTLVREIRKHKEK

Compound: CC1(C)CCCN1c1nc(OC[C@@]23CCCN2C[C@H](F)C3)nc2c(F)c(-c3ccc(F)c4sc(N)nc34)c(C(F)(F)F)cc12 [Example 57, 4-(4-(2,2-dimethylpyrrolidin-1-yl)-8-fluoro-2-(((2R,7aS)-2-fluorotetrahydro-1H-pyrrolizin-7a(5H)-yl)methoxy)-6-(trifluoromethyl)quinazolin-7-yl)-7-fluorobenzo[d]thiazol-2-amine]
- IC50: 180 nM

Compound: N#CCC1CCN(c2nc(OC[C@@]34CCCN3C[C@H](F)C4)nc3c(F)c(-c4cc(N)cc(Cl)c4C(F)(F)F)ncc23)CC1 [Example 125, 2-(1-(7-(5-amino-3-chloro-2-(trifluoromethyl)phenyl)-8-fluoro-2-(((2R,7aS)-2-fluorotetrahydro-1H-pyrrolizin-7a(5H)-yl)methoxy)pyrido[4,3-d]pyrimidin-4-yl)piperidin-4-yl)acetonitrile]
- IC50: 81 nM

Compound: Nc1nc2c(-c3c(C(F)(F)F)cc4c(N5CCC(F)(F)C5)nc(OC[C@@]56CCCN5C[C@H](F)C6)nc4c3F)ccc(F)c2s1 [Example 53, 4-(4-(3,3-difluoropyrrolidin-1-yl)-8-fluoro-2-(((2R,7aS)-2-fluorotetrahydro-1H-pyrrolizin-7a(5H)-yl)methoxy)-6-(trifluoromethyl)quinazolin-7-yl)-7-fluorobenzo[d]thiazol-2-amine]
- IC50: 12 nM

Compound: Nc1nc2c(-c3c(C(F)(F)F)cc4c(N5CCC6(CCNC(=O)O6)CC5)nc(OC[C@@]56CCCN5C[C@H](F)C6)nc4c3F)ccc(F)c2s1 [Example 99, 9-(7-(2-amino-7-fluorobenzo[d]thiazol-4-yl)-8-fluoro-2-(((2R,7aS)-2-fluorotetrahydro-1H-pyrrolizin-7a(5H)-yl)methoxy)-6-(trifluoromethyl)quinazolin-4-yl)-1-oxa-3,9-diazaspiro[5.5]undecan-2-one]
- IC50: 2.8 nM

Compound: Nc1nc2c(-c3c(C(F)(F)F)cc4c(N5CC(F)(F)C5)nc(OC[C@@]56CCCN5C[C@H](F)C6)nc4c3F)ccc(F)c2s1 [Example 38, 4-(4-(3,3-difluoroazetidin-1-yl)-8-fluoro-2-(((2R,7aS)-2-fluorotetrahydro-1H-pyrrolizin-7a(5H)-yl)methoxy)-6-(trifluoromethyl)quinazolin-7-yl)-7-fluorobenzo[d]thiazol-2-amine]
- IC50: 25 nM

Compound: COc1cc(N)nc(-c2c(Cl)cc3c(N4CCC(C#N)CC4)nc(OC[C@@]45CCCN4C[C@H](F)C5)nc3c2F)c1C(F)(F)F [Example 108, 1-(7-(6-amino-4-methoxy-3-(trifluoromethyl)pyridin-2-yl)-6-chloro-8-fluoro-2-(((2R,7aS)-2-fluorotetrahydro-1H-pyrrolizin-7a(5H)-yl)methoxy)quinazolin-4-yl)piperidine-4-carbonitrile]
- IC50: > 1000 nM

Compound: C[C@H]1COCCN1c1nc(OC[C@@]23CCCN2C[C@H](F)C3)nc2c(F)c(-c3cc(N)cc(Cl)c3C(F)(F)F)ncc12 [Example 114, 3-chloro-5-(8-fluoro-2-(((2R,7aS)-2-fluorotetrahydro-1H-pyrrolizin-7a(5H)-yl)methoxy)-4-((S)-3-methylmorpholino)pyrido[4,3-d]pyrimidin-7-yl)-4-(trifluoromethyl)aniline]
- IC50: 9.2 nM

Compound: N#CC1CCCCN(c2nc(OC[C@@]34CCCN3C[C@H](F)C4)nc3c(F)c(-c4ccc(F)c5sc(N)nc45)c(C(F)(F)F)cc23)C1 (stereo partly drawn) [Example 83, 1-(7-(2-amino-7-fluorobenzo[d]thiazol-4-yl)-8-fluoro-2-(((2R,7aS)-2-fluorotetrahydro-1H-pyrrolizin-7a(5H)-yl)methoxy)-6-(trifluoromethyl)quinazolin-4-yl)azepane-3-carbonitrile]
- IC50: 6.4 nM

Compound: N#C[C@H]1C[C@@H](Nc2nc(OC[C@@]34CCCN3C[C@H](F)C4)nc3c(F)c(-c4ccc(F)c5sc(N)nc45)c(C(F)(F)F)cc23)C1 [Example 18, (cis)-3-((7-(2-amino-7-fluorobenzo[d]thiazol-4-yl)-8-fluoro-2-(((2R,7aS)-2-fluorotetrahydro-1H-pyrrolizin-7a(5H)-yl)methoxy)-6-(trifluoromethyl)quinazolin-4-yl)amino)cyclobutane-1-carbonitrile]
- IC50: 13 nM

Compound: CC(=O)N1C[C@@H]2[C@H](C1)[C@H]2Nc1nc(OC[C@@]23CCCN2C[C@H](F)C3)nc2c(F)c(-c3ccc(F)c4sc(N)nc34)c(Cl)cc12 [Example 30, 1-((1R,5S,6s)-6-((7-(2-amino-7-fluorobenzo[d]thiazol-4-yl)-6-chloro-8-fluoro-2-(((2R,7aS)-2-fluorotetrahydro-1H-pyrrolizin-7a(5H)-yl)methoxy)quinazolin-4-yl)amino)-3-azabicyclo[3.1.0]hexan-3-yl)ethan-1-one]
- IC50: 3.5 nM

Compound: Cc1cc(N)nc(-c2c(Cl)cc3c(N4CC[C@@H](C#N)C[C@@H]4C)nc(OC[C@@]45CCCN4C[C@H](F)C5)nc3c2F)c1C(F)(F)F (mixture of isomers) [Example 104, 1-(7-(6-amino-4-methyl-3-(trifluoromethyl)pyridin-2-yl)-6-chloro-8-fluoro-2-(((2R,7aS)-2-fluorotetrahydro-1H-pyrrolizin-7a(5H)-yl)methoxy)quinazolin-4-yl)-trans-2-methylpiperidine-4-carbonitrile]
- IC50: 7 nM

Compound: N#CC1CCN(c2nc(OC[C@@]34CCCN3C[C@H](F)C4)nc3c(F)c(-c4ccc(F)c5sc(N)nc45)c(C(F)(F)F)cc23)CC1F (stereo partly drawn) [Example 72, 1-(7-(2-amino-7-fluorobenzo[d]thiazol-4-yl)-8-fluoro-2-(((2R,7aS)-2-fluorotetrahydro-1H-pyrrolizin-7a(5H)-yl)methoxy)-6-(trifluoromethyl)quinazolin-4-yl)-3-fluoropiperidine-4-carbonitrile]
- IC50: 2 nM

Compound: Nc1nc2c(-c3c(C(F)(F)F)cc4c(N[C@H]5C[C@@H](F)C5)nc(OC[C@@]56CCCN5C[C@H](F)C6)nc4c3F)ccc(F)c2s1 [Example 15, 7-fluoro-4-(8-fluoro-4-(((cis)-3-fluorocyclobutyl)amino)-2-(((2R,7aS)-2-fluorotetrahydro-1H-pyrrolizin-7a(5H)-yl)methoxy)-6-(trifluoromethyl)quinazolin-7-yl)benzo[d]thiazol-2-amine]
- IC50: 17 nM

Compound: Nc1cc(Cl)c(C(F)(F)F)c(-c2ncc3c(NC4CC4)nc(OC[C@@]45CCCN4C[C@H](F)C5)nc3c2F)c1 [Example 110, 7-(5-amino-3-chloro-2-(trifluoromethyl)phenyl)-N-cyclopropyl-8-fluoro-2-(((2R,7aS)-2-fluorotetrahydro-1H-pyrrolizin-7a(5H)-yl)methoxy) pyrido[4,3-d]pyrimidin-4-amine]
- IC50: 17 nM

Compound: Nc1nc2c(-c3c(Cl)cc4c(NC56CC(C5)C6)nc(OC[C@@]56CCCN5C[C@H](F)C6)nc4c3F)ccc(F)c2s1 [Example 32, 4-(4-(bicyclo[1.1.1]pentan-1-ylamino)-6-chloro-8-fluoro-2-(((2R,7aS)-2-fluorotetrahydro-1H-pyrrolizin-7a(5H)-yl)methoxy)quinazolin-7-yl)-7-fluorobenzo[d]thiazol-2-amine]
- IC50: 21 nM

Compound: COC1CN(c2nc(OC[C@@]34CCCN3C[C@H](F)C4)nc3c(F)c(-c4ccc(F)c5sc(N)nc45)c(C(F)(F)F)cc23)C1 [Example 45, 7-fluoro-4-(8-fluoro-2-(((2R,7aS)-2-fluorotetrahydro-1H-pyrrolizin-7a(5H)-yl)methoxy)-4-(3-methoxyazetidin-1-yl)-6-(trifluoromethyl)quinazolin-7-yl)benzo[d]thiazol-2-amine]
- IC50: 15 nM

Compound: Nc1nc2c(-c3c(C(F)(F)F)cc4c(N5CCC6(CC5)CNC(=O)CO6)nc(OC[C@@]56CCCN5C[C@H](F)C6)nc4c3F)ccc(F)c2s1 [Example 98, 9-(7-(2-amino-7-fluorobenzo[d]thiazol-4-yl)-8-fluoro-2-(((2R,7aS)-2-fluorotetrahydro-1H-pyrrolizin-7a(5H)-yl)methoxy)-6-(trifluoromethyl)quinazolin-4-yl)-1-oxa-4,9-diazaspiro[5.5]undecan-3-one]
- IC50: 51 nM

Compound: CCN1CC2(CCN(c3nc(OC[C@@]45CCCN4C[C@H](F)C5)nc4c(F)c(-c5ccc(F)c6sc(N)nc56)c(C(F)(F)F)cc34)CC2)OC1=O [Example 88, 8-(7-(2-amino-7-fluorobenzo[d]thiazol-4-yl)-8-fluoro-2-(((2R,7aS)-2-fluorotetrahydro-1H-pyrrolizin-7a(5H)-yl)methoxy)-6-(trifluoromethyl)quinazolin-4-yl)-3-ethyl-1-oxa-3,8-diazaspiro[4.5]decan-2-one]
- IC50: 1.4 nM

Compound: C[C@H]1CCCN1c1nc(OC[C@@]23CCCN2C[C@H](F)C3)nc2c(F)c(-c3ccc(F)c4sc(N)nc34)c(C(F)(F)F)cc12 [Example 56, 7-fluoro-4-(8-fluoro-2-(((2R,7aS)-2-fluorotetrahydro-1H-pyrrolizin-7a(5H)-yl)methoxy)-4-((S)-2-methylpyrrolidin-1-yl)-6-(trifluoromethyl)quinazolin-7-yl)benzo[d]thiazol-2-amine]
- IC50: 22 nM
